# From patent publication US8889696B2, “Substituted pyrido[2,3-d]pyrimidin-7(8H)-ones and therapeutic uses thereof” (Temple University—Of The Commonwealth System Of Higher …, priority 2009, dated 2014)
# Tests used:
# [1] = tested on: K562 (chronic myelogenous leukemia); assay: Effect on tumor cell lines (Latham assay), K562; format: cell-based; details: Homo sapiens; K562 cells, examined 96 hours after treatment; read-out: Potencies (IC50) K 562
# Method: (§1) The plated cells were treated 24 hours later with a compound of the invention dissolved in DMSO at multiple concentrations ranging from 0.01 μM to 100 μM. […] When necessary, the total number of viable cells was determined by trypsinizing the wells and counting the number of viable cells, as determined by trypan blue exclusion, using a hemacytometer.
# DU145 (prostate cancer) = assay: Effect on tumor cell lines (Latham assay), DU145; format: cell-based; details: Homo sapiens, DU-145; DU145 cells, examined 96 hours after treatment; read-out: Potencies (IC50) DU 145
# Method: as §1
SMILES,IC50 [1] [µM],IC50 (DU145 (prostate cancer)) [µM],melting point [°C]
"COc1ccc(Nc2ncc3cc(S(=O)(=O)c4ccc(Cl)cc4)c(=O)n(C)c3n2)cc1 [Example 4, 6-(4-chlorophenylsulfonyl)-2-(4-methoxyphenylamino)-8-methylpyrido[2,3-d]pyrimidin-7(8H)-one]",10 to 25,25 to 50,286 to 290
"Cn1c(=O)c(S(=O)(=O)c2ccc(Cl)cc2)cc2cnc(Nc3cnc4ccccc4c3)nc21 [Example 5, 6-(4-chlorophenylsulfonyl)-8-methyl-2-(quinolin-3-ylamino)pyrido[2,3-d]pyrimidin-7(8H)-one]",10 to 25,10 to 25,304 to 306
"Cn1c(=O)c(S(=O)(=O)c2ccc(Cl)cc2)cc2cnc(NCCCN3CCOCC3)nc21 [Example 7, 2-(3-morpholinopropylamino)-6-(4-chlorophenylsulfonyl)-8-methylpyrido[2,3-d]pyrimidin-7(8H)-one]",25 to 50,25 to 50,160 to 164
Cn1c(=O)c(S(=O)(=O)c2ccc(F)cc2)cc2cnc(Nc3ccc4[nH]ccc4c3)nc21 [Example 11],< 1,< 1,278 to 282
"Cc1ccc(S(=O)(=O)c2cc3cnc(Nc4cccc5cccnc45)nc3n(C)c2=O)cc1 [Example 14, 8-methyl-2-(quinolin-8-ylamino)-6-tosylpyrido[2,3-d]pyrimidin-7(8H)-one]",10 to 25,10 to 25,> 350
"Cc1ccc(S(=O)(=O)c2cc3cnc(Nc4ccc5ncccc5c4)nc3n(C)c2=O)cc1 [Example 15, 8-methyl-2-(quinolin-6-ylamino)-6-tosylpyrido[2,3-]pyrimidin-7(8H)-one]",10 to 25,10 to 25,325 to 330
"Cc1ccc(S(=O)(=O)c2cc3cnc(Nc4cccc5[nH]ccc45)nc3n(C)c2=O)cc1 [Example 16, 2-(1H-indol-4-ylamino)-8-methyl-6-tosylpyrido[2,3-d]pyrimidin-7(8H)-one]",1 to 10,1 to 10,295 to 300
"Cc1ccc(S(=O)(=O)c2cc3cnc(Nc4cnc5[nH]ccc5c4)nc3n(C)c2=O)cc1 [Example 19, 2-(1H-pyrrolo[2,3-b]pyridin-5-ylamino)-8-methyl-6-tosylpyrido[2,3-d]pyrimidin-7(8H)-one]",1 to 10,1 to 10,252 to 255
"COc1ccc(Nc2ncc3cc(S(=O)(=O)c4ccc(C)cc4)c(=O)n(C)c3n2)cc1 [Example 20, 2-(4-methoxyphenylamino)-8-methyl-6-tosylpyrido[2,3-d]pyrimidin-7(8H)-one]",50 to 100,> 100,336 to 340
"Cn1c(=O)c(S(=O)(=O)c2ccc(F)cc2)cc2cnc(Nc3ccc4cc[nH]c4c3)nc21 [Example 24, 2-(1H-indol-6-ylamino)-6-(4-fluorophenylsulfonyl)-8-methylpyrido[2,3-d]pyrimidin-7(8H)-one]",25 to 50,25 to 50,> 350
"Cn1c(=O)c(S(=O)(=O)c2ccc(F)c(Cl)c2)cc2cnc(Nc3ccc4c(c3)CC(=O)N4)nc21 [Example 36, 2-(2-oxoindolin-5-ylamino)-6-(3-chloro-4-fluorophenylsulfonyl)-8-methylpyrido[2,3-d]pyrimidin-7(8H)-one]",10 to 25,10 to 25,
"Cn1c(=O)c(S(=O)(=O)c2ccc(F)c(Cl)c2)cc2cnc(Nc3ccc4[nH]ncc4c3)nc21 [Example 38, 2-(1H-indazol-5-ylamino)-6-(3-chloro-4-fluorophenylsulfonyl)-8-methylpyrido[2,3-d]pyrimidin-7(8H)-one]",10 to 25,10 to 25,
"Cn1c(=O)c(S(=O)(=O)c2ccc(O)cc2)cc2cnc(Nc3ccc4[nH]ccc4c3)nc21 [Example 43, 2-(1H-indol-5-ylamino)-6-(4-hydroxyphenylsulfonyl)-8-methylpyrido[2,3-d]pyrimidin-7(8H)-one]",< 1,< 1,
"O=c1[nH]c2nc(Nc3ccc4[nH]ccc4c3)ncc2cc1S(=O)(=O)c1ccc(F)c(Cl)c1 [Example 46, 2-(1H-indol-5-ylamino)-6-(3-chloro-4-fluorophenylsulfonyl)pyrido[2,3-d]pyrimidin-7(8H)-one]",10 to 25,50 to 100,
"C[S+]([O-])c1ncc2cc(S(=O)(=O)c3ccccc3)c(=O)n(C3CCCC3)c2n1 (centres unmarked) [Example 66, 8-cyclopentyl-2-(methylsulfinyl)-6-(phenylsulfonyl)pyrido[2,3-d]pyrimidin-7(8H)-one]",10 to 25,50 to 100,

# The remaining lines, values ahead:
IC50 [1] [µM],IC50 (DU145 (prostate cancer)) [µM],melting point [°C],SMILES
10 to 25,10 to 25,> 300,"Cn1c(=O)c(S(=O)(=O)c2ccc(Cl)cc2)cc2cnc(Nc3ccc(Cl)cc3)nc21 [Example 3, 2-(4-chlorophenylamino)-6-(4-chlorophenylsulfonyl)-8-methylpyrido[2,3-d]pyrimidin-7(8H)-one]"
< 1,< 1,316 to 320,"Cn1c(=O)c(S(=O)(=O)c2ccc(Cl)cc2)cc2cnc(Nc3ccc4[nH]ccc4c3)nc21 [Example 6, 2-(1H-indol-5-ylamino)-6-(4-chlorophenylsulfonyl)-8-methylpyrido[2,3-d]pyrimidin-7(8H)-one]"
50 to 100,50 to 100,264 to 268,"CC(=O)N1CCN(c2ncc3cc(S(=O)(=O)c4ccc(Cl)cc4)c(=O)n(C)c3n2)CC1 [Example 8, 6-(4-chlorophenylsulfonyl)-2-(4-acetylpiperazin-1-yl)-8-methylpyrido[2,3-d]pyrimidin-7(8H)-one]"
10 to 25,25 to 50,176 to 180,"CN1CCN(CCNc2ncc3cc(S(=O)(=O)c4ccc(Cl)cc4)c(=O)n(C)c3n2)CC1 [Example 9, 2-(2-(4-methylpiperazin-1-yl)ethylamino)-6-(4-chlorophenylsulfonyl)-8-methylpyrido[2,3-d]pyrimidin-7(8H)-one]"
< 1,< 1,> 350,"Cn1c(=O)c(S(=O)(=O)c2ccc(F)cc2)cc2cnc(Nc3cccc4[nH]ccc34)nc21 [Example 10, 2-(1H-indol-4-ylamino)-6-(4-fluorophenylsulfonyl)-8-methylpyrido[2,3-d]pyrimidin-7(8H)-one]"
1 to 10,1 to 10,160 to 165,"Cn1c(=O)c(S(=O)(=O)c2ccc(F)cc2)cc2cnc(Nc3ccc4[nH]ncc4c3)nc21 [Example 13, 2-(1H-indazol-5-ylamino)-6-(4-fluorophenylsulfonyl)-8-methylpyrido[2,3-d]pyrimidin-7(8H)-one]"
< 1,< 1,310 to 314,"Cc1ccc(S(=O)(=O)c2cc3cnc(Nc4ccc5[nH]ccc5c4)nc3n(C)c2=O)cc1 [Example 17, 2-(1H-indol-5-ylamino)-8-methyl-6-tosylpyrido[2,3-d]pyrimidin-7(8H)-one]"
1 to 10,1 to 10,316 to 320,"Cn1c(=O)c(S(=O)(=O)c2ccc(Br)cc2)cc2cnc(Nc3ccc4[nH]ccc4c3)nc21 [Example 18, 2-(1H-indol-5-ylamino)-6-(4-bromophenylsulfonyl)-8-methylpyrido[2,3-d]pyrimidin-7(8H)-one]"
< 1,1 to 10,340 to 344,"Cn1c(=O)c(S(=O)(=O)c2ccccc2)cc2cnc(Nc3ccc4[nH]ccc4c3)nc21 [Example 21, 2-(1H-indol-5-ylamino)-8-methyl-6-(phenylsulfonyl)pyrido[2,3-d]pyrimidin-7(8H)-one]"
< 1,< 1,280 to 284,"Cn1c(=O)c(S(=O)(=O)c2ccccc2)cc2cnc(Nc3cnc4[nH]ccc4c3)nc21 [Example 22, 2-(1H-pyrrolo[2,3-b]pyridin-5-ylamino)-8-methyl-6-(phenylsulfonyl)pyrido[2,3-d]pyrimidin-7(8H)-one]"
> 100,50 to 100,348 to 350,"Cn1c(=O)c(S(=O)(=O)c2ccccc2)cc2cnc(Nc3ccc4ncccc4c3)nc21 [Example 23, 8-methyl-6-(phenylsulfonyl)-2-(quinolin-6-ylamino)pyrido[2,3-d]pyrimidin-7(8H)-one]"
50 to 100,50 to 100,,"Cn1c(=O)c(S(=O)(=O)c2ccc(F)cc2F)cc2cnc(Nc3ccc4c(c3)CC(=O)N4)nc21 [Example 41, 6-(2,4-difluorophenylsulfonyl)-2-(2-oxoindolin-5-ylamino)-8-methylpyrido[2,3-d]pyrimidin-7(8H)-one]"
50 to 100,50 to 100,,"Cn1c(=O)c(S(=O)(=O)c2ccc(F)cc2F)cc2cnc(NCCN3CCOCC3)nc21 [Example 42, 6-(2,4-difluorophenylsulfonyl)-2-(2-morpholinoethylamino)-8-methylpyrido[2,3-d]pyrimidin-7(8H)-one]"
1 to 10,10 to 25,,"CN1CCN(c2ccc(Nc3ncc4cc(S(=O)(=O)c5ccc(Cl)cc5)c(=O)n(C5CCCC5)c4n3)cc2)CC1 [Example 58, 2-(4-(4-methylpiperazin-1-yl)phenylamine)-6-(4-chlorophenylsulfonyl)-8-cyclopentylpyrido[2,3-d]pyrimidin-7(8H)-one]"
1 to 10,10 to 25,,"C[S+]([O-])c1ncc2cc(S(=O)(=O)c3ccc(Cl)cc3)c(=O)n(C3CCCC3)c2n1 (centres unmarked) [Example 59, 6-(4-chlorophenylsulfonyl)-8-cyclopentyl-2-(methylsulfinyl)pyrido[2,3-d]pyrimidin-7(8H)-one]"
1 to 10,< 1,,"CN1CCN(c2ccc(Nc3ncc4cc(S(=O)(=O)c5ccccc5)c(=O)n(C5CCCC5)c4n3)cc2)CC1 [Example 64, 2-(4-(4-methylpiperazin-1-yl)phenylamino)-8-cyclopentyl-6-(phenylsulfonyl)pyrido[2,3-d]pyrimidin-7(8H)-one]"
